Consider 41 compounds from patent publication US6939882B1 (priority 1999, dated 2005).

One test relates to Pyricularia oryzae. Format: in vivo. The note with it: concentration of 500 ppm (w/v) or less, spray or stem base drench.
The next test has as its system Plasmopara viticola. The note with it: in vivo. Further: key: 1 is little or no control; 2 is moderate control; 3 is good to total control.
The subject of the next test is Leptosphaeria nodorum. The note with it: in vivo.
A further test deals with Phytophthora infestans. Format: in vivo. The conditions noted are these: concentration of 500 ppm (w/v) or less, spray or stem base drench.

Consider `N#CC(=NOc1ncc(C(F)(F)F)cc1Cl)c1c(Cl)cccc1Cl` (single isomer, unassigned) [Compound 937], for which the “score of disease control (degree of infection visually estimated)” value (“score of disease control” for short) in the test with Pyricularia oryzae is on record as 2. For the compound `N#CC(=NOc1ncc(C(F)(F)F)cc1Cl)c1c(Cl)cccc1Cl` (single isomer, unassigned) [Compound 938], the “score of disease control” value with Pyricularia oryzae is listed as 2. For `CCOC(=O)C(c1ncc(C(F)(F)F)cc1Cl)N(Cc1ccccc1Cl)C(C)=O` (stereo not drawn) [Compound 7], the “score of disease control” value in the test with Plasmopara viticola and in the test with Pyricularia oryzae was 2 throughout. In the case of `CCOC(=O)C(c1ncc(C(F)(F)F)cc1Cl)N(Cc1ccccc1Cl)C(=O)C(=O)OC` (stereo not drawn) [Compound 9], the “score of disease control” value with Plasmopara viticola and with Pyricularia oryzae was 2 throughout. With `CCOC(=O)C(c1ncc(C(F)(F)F)cc1Cl)N(Cc1ccc2c(c1)OCO2)C(=O)C(=O)OC` (stereo not drawn) [Compound 12], the “score of disease control” value in the test with Plasmopara viticola was 2.

Regarding `CC(NCc1ncc(C(F)(F)F)cc1Cl)c1ccccc1Cl` (stereo not drawn) [Compound 17], the “score of disease control” value in the test with Pyricularia oryzae is recorded as 2. As for `CC(NCc1ncc(C(F)(F)F)cc1Cl)c1ccc(F)c(F)c1` (stereo not drawn) [Compound 23, N-{[3-Chloro-5-(trifluoromethyl)-2-pyridyl]methyl}-N-[1-(3,4-difluorophenyl)-ethyl]amine], the “score of disease control” value in the test on Leptosphaeria nodorum is recorded as 2. With `COc1ccc(OC)c(CNCc2ncc(C(F)(F)F)cc2Cl)c1` [Compound 49], the “score of disease control” value with Phytophthora infestans is listed as 2. As to `O=[N+]([O-])c1ccc(CNCc2ncc(C(F)(F)F)cc2Cl)cc1` [Compound 51], in the test on Leptosphaeria nodorum, the “score of disease control” value was 2. Regarding `O=C(NNc1ncc(C(F)(F)F)cc1Cl)c1c(Cl)cccc1Cl` [Compound 102], the “score of disease control” value with Phytophthora infestans and in the test on Plasmopara viticola was 2 throughout. Take `CN(NC(=O)c1c(Cl)cccc1Cl)c1ncc(C(F)(F)F)cc1Cl` [Compound 109]: the “score of disease control” value in the test with Plasmopara viticola was 2. Regarding `O=C(NNc1ncc(C(F)(F)F)cc1Cl)c1c(F)cccc1Cl` [Compound 126], the “score of disease control” value with Phytophthora infestans, with Plasmopara viticola, in the test on Pyricularia oryzae and in the test with Leptosphaeria nodorum was 2 throughout.

Consider `CC(NC(=O)c1ncc(C(F)(F)F)cc1Cl)c1c(F)cccc1F` (stereo not drawn) [Compound 202], for which the “score of disease control” value with Phytophthora infestans is on record as 2.

Turning to `CC(NC(=O)c1ncc(C(F)(F)F)cc1Cl)c1ccc(Cl)cc1` (stereo not drawn) [Compound 207], in the test with Leptosphaeria nodorum, the “score of disease control” value is listed as 2.

With `CC(NC(=O)c1ncc(C(F)(F)F)cc1Cl)c1ccc(Br)cc1` (stereo not drawn) [Compound 208], the “score of disease control” value in the test on Leptosphaeria nodorum is on record as 2.

`Cc1ccc(CNC(=O)c2ncc(C(F)(F)F)cc2Cl)cc1` [Compound 215]: the “score of disease control” value in the test on Phytophthora infestans and with Plasmopara viticola was 2 throughout. As to `O=C(C=Cc1ncc(C(F)(F)F)cc1Cl)c1ccccc1[N+](=O)[O-]` [Compound 601, 3-[3-Chloro-5-(trifluoromethyl)-2-pyridyl]-1-(2-nitrophenyl)-2-propen-1-one], the “score of disease control” value in the test with Phytophthora infestans and in the test on Plasmopara viticola was 2 in each case.

As to `CC(=NOc1ncc(C(F)(F)F)cc1Cl)c1ccccc1Cl` [Compound 901], the “score of disease control” value in the test with Plasmopara viticola and with Pyricularia oryzae was 2 in each case.

Consider `FC(F)(F)c1cnc(ON=Cc2ccncc2)c(Cl)c1` [Compound 902], for which, in the test with Phytophthora infestans, the “score of disease control” value is 2.

Take `CC(=NOc1ncc(C(F)(F)F)cc1Cl)c1cccn1C` [Compound 906]: the “score of disease control” value in the test with Pyricularia oryzae and in the test with Leptosphaeria nodorum was 2 each time. Turning to `CC(=NOc1ncc(C(F)(F)F)cc1Cl)c1ccccc1C` [Compound 907], the “score of disease control” value with Plasmopara viticola and in the test with Pyricularia oryzae was 2 in each case. As for `CC(C)(C)C(=NOc1ncc(C(F)(F)F)cc1Cl)c1ccccn1` [Compound 912], in the test with Phytophthora infestans, the “score of disease control” value is listed as 2. `CC(=NOc1ncc(C(F)(F)F)cc1Cl)c1cccs1` [Compound 913]: the “score of disease control” value with Pyricularia oryzae was 2. Regarding `COc1ccc(C=NOc2ncc(C(F)(F)F)cc2Cl)cc1` [Compound 914], the “score of disease control” value in the test on Plasmopara viticola is on record as 2. For `CC(=NOc1ncc(C(F)(F)F)cc1Cl)c1ccc(C)cc1C` [Compound 915], in the test with Plasmopara viticola, the “score of disease control” value is given as 2. As for `COc1ccccc1C=NOc1ncc(C(F)(F)F)cc1Cl` [Compound 921], the “score of disease control” value in the test on Plasmopara viticola is given as 2.

Turning to `CCC(=NOc1ncc(C(F)(F)F)cc1Cl)c1ccccc1` [Compound 922], in the test on Pyricularia oryzae, the “score of disease control” value is given as 2. As to `O=[N+]([O-])c1cccc(C=NOc2ncc(C(F)(F)F)cc2Cl)c1` [Compound 923], the “score of disease control” value in the test with Pyricularia oryzae and in the test on Leptosphaeria nodorum was 2 throughout. `N#CC(=NOc1ncc(C(F)(F)F)cc1Cl)c1ccccc1` [Compound 926]: in the test with Leptosphaeria nodorum, the “score of disease control” value was 2. For the compound `CC(=NOc1ncc(C(F)(F)F)cc1Cl)c1ccccc1` [Compound 927], the “score of disease control” value in the test on Phytophthora infestans is reported as 2. As for `FC(F)(F)c1cnc(ON=Cc2ccccc2Cl)c(Cl)c1` [Compound 929], in the test on Leptosphaeria nodorum, the “score of disease control” value was 2. With `FC(F)(F)c1cnc(ON=Cc2cccc3ccccc23)c(Cl)c1` [Compound 933], the “score of disease control” value in the test on Leptosphaeria nodorum is reported as 2. Take `N#CC(=NOc1ncc(C(F)(F)F)cc1Cl)c1ccccc1C#N` [Compound 939]: the “score of disease control” value in the test on Pyricularia oryzae was 2. With `CCC(=NOc1ncc(C(F)(F)F)cc1Cl)c1ccc(Cl)cc1Cl` [Compound 953], the “score of disease control” value with Phytophthora infestans is 2. `FC(F)(F)c1cnc(ON=C(c2ccc(Cl)cc2)c2ccc(Cl)cc2)c(Cl)c1` [Compound 958]: in the test on Plasmopara viticola, the “score of disease control” value is 2.

For `Cc1cnc(C(=O)NOc2ncc(C(F)(F)F)cc2Cl)cn1` [Compound 1001], the “score of disease control” value in the test on Plasmopara viticola and with Pyricularia oryzae was 2 each time. For the compound `Cc1nc(C)c(C(=O)NOc2ncc(C(F)(F)F)cc2Cl)s1` [Compound 1007], the “score of disease control” value with Leptosphaeria nodorum is reported as 2.

Take `O=C(NOc1ncc(C(F)(F)F)cc1Cl)c1ccccc1Cl` [Compound 1013]: the “score of disease control” value with Plasmopara viticola is recorded as 2. Turning to `CC1CCc2ccccc2C1=NOc1ncc(C(F)(F)F)cc1Cl` (stereo not drawn) [Compound 1101, 2-Methyl-1,2,3,4-tetrahydro-1-naphthalenone O-1-[3-chloror-5-(trifluoromethyl)-2-pyridyl]oxime], the “score of disease control” value with Phytophthora infestans was 2. Same read-out and setting: then `COc1ccc2c(c1)C(=NOc1ncc(C(F)(F)F)cc1Cl)CCC2` [Compound 1102], with 2. In the case of `CN1C(=O)C(=NOc2ncc(C(F)(F)F)cc2Cl)c2ccccc21` [Compound 1109], the “score of disease control” value in the test on Leptosphaeria nodorum is reported as 2.
